According to ChEMBL document CHEMBL4602647, “Protective effects of 10,11-dihydro-5H-dibenzo[b,f]azepine hydroxamates on vascular cognitive impairment” (Eur J Med Chem, 2020):
In brackets after ≈: the same amount, converted by molar mass. Activity calls are given as the source filed them. The calls are words filed in the database; no cut-off is given here.

Columns and labels:
[1] = biological target: Histone deacetylase 4 (Homo sapiens, UniProt P56524); experiment: Inhibition of recombinant N-terminal GST-tagged/C-terminal His-tagged human HDAC4 (627 to 1084 residues) expressed in baculovirus infected insect cells using RHK-K(Ac)-AMC as substrate after 60 mins by fluorimetry analysis
Sequence of Histone deacetylase 4 (P56524 whole entry, the tested form may be a part): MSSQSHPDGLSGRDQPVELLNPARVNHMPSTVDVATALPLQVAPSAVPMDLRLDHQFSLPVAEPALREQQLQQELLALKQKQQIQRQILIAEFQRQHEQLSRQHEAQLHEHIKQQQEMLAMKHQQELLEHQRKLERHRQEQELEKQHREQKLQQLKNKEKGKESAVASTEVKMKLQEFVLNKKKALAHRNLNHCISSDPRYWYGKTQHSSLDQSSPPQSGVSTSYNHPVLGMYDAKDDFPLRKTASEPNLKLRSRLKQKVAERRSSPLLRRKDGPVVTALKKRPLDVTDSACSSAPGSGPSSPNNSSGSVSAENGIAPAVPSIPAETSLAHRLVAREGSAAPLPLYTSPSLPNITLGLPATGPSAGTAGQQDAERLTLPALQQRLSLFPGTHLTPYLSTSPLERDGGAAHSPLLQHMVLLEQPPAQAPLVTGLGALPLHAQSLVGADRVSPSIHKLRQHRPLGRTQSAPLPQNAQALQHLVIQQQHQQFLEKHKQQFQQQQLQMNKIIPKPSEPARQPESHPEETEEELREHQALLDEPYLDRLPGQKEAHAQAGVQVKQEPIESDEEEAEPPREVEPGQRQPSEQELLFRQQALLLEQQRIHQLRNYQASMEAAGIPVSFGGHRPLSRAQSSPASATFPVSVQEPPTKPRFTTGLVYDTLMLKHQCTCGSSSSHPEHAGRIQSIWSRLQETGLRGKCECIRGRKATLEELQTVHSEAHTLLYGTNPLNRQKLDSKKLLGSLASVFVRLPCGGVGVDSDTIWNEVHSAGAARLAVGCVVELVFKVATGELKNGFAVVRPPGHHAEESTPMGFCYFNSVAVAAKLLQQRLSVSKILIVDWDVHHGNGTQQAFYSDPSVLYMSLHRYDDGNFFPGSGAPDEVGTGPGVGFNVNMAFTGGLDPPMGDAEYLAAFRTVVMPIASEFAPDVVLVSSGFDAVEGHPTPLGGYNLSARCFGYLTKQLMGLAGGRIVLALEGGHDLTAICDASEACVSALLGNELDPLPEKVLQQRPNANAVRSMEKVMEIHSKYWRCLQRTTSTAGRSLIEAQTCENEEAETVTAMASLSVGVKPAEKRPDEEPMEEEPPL

[2] = test system: Mus musculus; experiment: (§1) Anti-vascular cognitive impairment activity against bilateral common carotid artery occlusion-induced vascular dementia C57BL/6J mouse model assessed as ratio of cerebral blood flow in right parietal area at 25 mg/kg, ip administered post surgery measured after 3 months (reference value: 0.761 +/- 0.037); assay type: functional
[3] = test system: Mus musculus; experiment: Upregulation of acetylated H4K5 protein expression in left side cortex of bilateral common carotid artery occlusion-induced vascular dementia C57BL/6J mouse model at 25 mg/kg, ip measured after 3 months by Western blot analysis; assay type: functional, organism-based
[4] = test system: SH-SY5Y; experiment: Neuroprotective activity against OGD-induced hypoxic injury in human SH-SY5Y cells assessed as LDH release at 5 uM incubated under oxygen/glucose deprivation-induced hypoxic medium by LDH assay (reference value: 27.47 +/- 3.23 %); assay type: functional
[5] = test system: Mus musculus; experiment: Upregulation of acetylated H3K14 protein expression in hippocampus of bilateral common carotid artery occlusion-induced vascular dementia C57BL/6J mouse model at 25 mg/kg, ip measured after 3 months by Western blot analysis; assay type: functional, organism-based
[6] = test system: Mus musculus; experiment: as §1, with “left” for “right”, “months(reference” for “months (reference”, “0.792” for “0.761”, “0.029)” for “0.037)”; assay type: functional
[7] = biological target: Histone deacetylase 5 (Homo sapiens, UniProt Q9UQL6); experiment: Inhibition of recombinant human C-terminal His-tagged HDAC5 (657 to 1123 residues) expressed in baculovirus infected insect cells using Boc-K(Ac)-AMC as substrate after 60 mins by fluorimetry analysis
Sequence of Histone deacetylase 5 (Q9UQL6 whole entry, the tested form may be a part): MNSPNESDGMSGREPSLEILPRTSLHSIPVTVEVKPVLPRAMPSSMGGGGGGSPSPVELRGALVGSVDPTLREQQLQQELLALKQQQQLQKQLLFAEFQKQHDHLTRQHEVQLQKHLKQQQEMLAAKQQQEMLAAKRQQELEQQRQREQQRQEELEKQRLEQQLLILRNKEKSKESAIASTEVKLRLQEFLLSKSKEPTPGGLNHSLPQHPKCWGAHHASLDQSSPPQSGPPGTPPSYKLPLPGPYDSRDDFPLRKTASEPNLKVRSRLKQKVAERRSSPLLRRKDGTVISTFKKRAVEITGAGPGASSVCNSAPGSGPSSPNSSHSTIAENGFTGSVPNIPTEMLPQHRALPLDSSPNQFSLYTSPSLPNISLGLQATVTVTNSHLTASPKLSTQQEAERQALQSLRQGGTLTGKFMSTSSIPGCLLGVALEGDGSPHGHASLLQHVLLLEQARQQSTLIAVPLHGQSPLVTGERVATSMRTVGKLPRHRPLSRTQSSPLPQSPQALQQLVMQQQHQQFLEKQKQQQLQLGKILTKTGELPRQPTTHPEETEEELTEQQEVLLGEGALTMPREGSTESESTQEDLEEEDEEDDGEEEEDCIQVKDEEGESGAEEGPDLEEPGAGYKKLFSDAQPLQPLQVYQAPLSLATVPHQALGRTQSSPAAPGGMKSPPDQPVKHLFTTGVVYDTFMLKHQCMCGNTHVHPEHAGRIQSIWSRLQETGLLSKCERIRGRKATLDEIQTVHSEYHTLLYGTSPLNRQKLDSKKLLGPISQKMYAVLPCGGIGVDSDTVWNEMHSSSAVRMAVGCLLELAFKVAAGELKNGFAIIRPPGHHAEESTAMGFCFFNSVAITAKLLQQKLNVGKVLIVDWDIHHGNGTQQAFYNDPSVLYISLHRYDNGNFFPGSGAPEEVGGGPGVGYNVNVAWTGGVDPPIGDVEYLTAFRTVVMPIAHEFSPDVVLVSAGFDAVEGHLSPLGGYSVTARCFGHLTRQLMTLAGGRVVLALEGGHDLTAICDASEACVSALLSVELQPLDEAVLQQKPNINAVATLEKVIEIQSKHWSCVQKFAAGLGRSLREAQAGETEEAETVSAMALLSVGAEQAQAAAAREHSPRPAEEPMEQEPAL

[8] = biological target: T1, Protein deacetylase HDAC6 (Homo sapiens, UniProt Q9UBN7); experiment: Inhibition of recombinant human N-terminal GST-tagged HDAC6 (1 to 1215 residues) expressed in baculovirus infected insect cells using RHK-K(Ac)-AMC as substrate after 90 mins by fluorimetry analysis
T1 sequence (Q9UBN7 whole entry): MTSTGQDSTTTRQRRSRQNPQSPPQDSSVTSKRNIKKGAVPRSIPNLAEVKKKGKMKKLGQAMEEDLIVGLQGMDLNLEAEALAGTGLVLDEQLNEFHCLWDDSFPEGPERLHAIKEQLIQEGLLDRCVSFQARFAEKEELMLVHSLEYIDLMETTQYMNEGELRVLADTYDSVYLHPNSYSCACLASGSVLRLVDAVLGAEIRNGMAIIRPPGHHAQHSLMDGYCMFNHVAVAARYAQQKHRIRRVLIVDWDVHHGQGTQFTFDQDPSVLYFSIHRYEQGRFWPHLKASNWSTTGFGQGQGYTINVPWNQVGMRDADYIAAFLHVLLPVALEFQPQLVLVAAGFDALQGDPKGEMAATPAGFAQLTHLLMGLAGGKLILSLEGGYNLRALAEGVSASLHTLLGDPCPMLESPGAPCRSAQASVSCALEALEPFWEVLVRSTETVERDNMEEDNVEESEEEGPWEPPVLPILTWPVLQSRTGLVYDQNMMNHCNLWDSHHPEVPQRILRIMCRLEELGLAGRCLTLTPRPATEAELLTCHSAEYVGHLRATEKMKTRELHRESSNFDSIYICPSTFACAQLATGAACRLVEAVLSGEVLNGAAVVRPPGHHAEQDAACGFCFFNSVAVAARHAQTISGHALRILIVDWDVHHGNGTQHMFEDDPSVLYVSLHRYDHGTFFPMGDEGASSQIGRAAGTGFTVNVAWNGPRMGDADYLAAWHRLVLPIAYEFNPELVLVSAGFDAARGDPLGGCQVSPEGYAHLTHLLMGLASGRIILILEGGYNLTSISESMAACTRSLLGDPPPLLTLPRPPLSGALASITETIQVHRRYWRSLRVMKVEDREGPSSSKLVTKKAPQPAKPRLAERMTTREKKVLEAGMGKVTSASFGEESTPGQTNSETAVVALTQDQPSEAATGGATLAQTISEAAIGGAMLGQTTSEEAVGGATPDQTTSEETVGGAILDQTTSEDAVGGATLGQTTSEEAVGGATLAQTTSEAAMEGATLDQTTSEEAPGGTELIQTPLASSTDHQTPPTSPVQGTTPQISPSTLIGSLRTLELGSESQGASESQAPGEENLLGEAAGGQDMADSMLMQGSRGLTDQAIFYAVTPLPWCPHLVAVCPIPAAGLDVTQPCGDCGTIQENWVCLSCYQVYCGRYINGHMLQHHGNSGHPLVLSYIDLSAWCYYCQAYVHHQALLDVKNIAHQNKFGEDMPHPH

[9] = test system: Mus musculus; experiment: Upregulation of acetylated H3K14 protein expression in right side cortex of bilateral common carotid artery occlusion-induced vascular dementia C57BL/6J mouse model at 25 mg/kg, ip measured after 3 months by Western blot analysis; assay type: functional, organism-based
[10] = test system: Mus musculus; experiment: Anti-vascular cognitive impairment activity against bilateral common carotid artery occlusion-induced vascular dementia C57BL/6J mouse model assessed as reversal of hippocampal atrophy by measuring increase in ratio of size of hippocampus to lateral ventricle at 25 mg/kg, ip administered post surgery measured after 3 months by 7T-MRI analysis; assay type: functional, organism-based
[11] = biological target: Histone deacetylase 1 (Homo sapiens, UniProt Q13547); experiment: Inhibition of recombinant full length human C-terminal FLAG/His-tagged HDAC1 (1 to 482 residues) expressed in baculovirus infected Sf21 cells using RHK-K(Ac)-AMC as substrate measured after 60 mins by fluorimetric assay; details: read-out: IC50
Sequence of Histone deacetylase 1 (Q13547 whole entry, the tested form may be a part): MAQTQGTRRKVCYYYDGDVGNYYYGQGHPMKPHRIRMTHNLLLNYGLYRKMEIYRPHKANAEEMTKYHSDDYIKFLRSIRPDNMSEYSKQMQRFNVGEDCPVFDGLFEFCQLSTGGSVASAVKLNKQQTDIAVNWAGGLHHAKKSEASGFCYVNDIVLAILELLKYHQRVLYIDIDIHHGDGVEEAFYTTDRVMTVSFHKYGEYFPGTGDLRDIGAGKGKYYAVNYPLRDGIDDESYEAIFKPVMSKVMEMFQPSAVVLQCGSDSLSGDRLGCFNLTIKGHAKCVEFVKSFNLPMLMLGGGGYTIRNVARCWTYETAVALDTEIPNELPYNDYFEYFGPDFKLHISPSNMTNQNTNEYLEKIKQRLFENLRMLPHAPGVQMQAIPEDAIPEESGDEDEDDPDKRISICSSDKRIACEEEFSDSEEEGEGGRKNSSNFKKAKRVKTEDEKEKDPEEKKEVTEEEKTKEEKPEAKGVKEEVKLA

[12] = Volume of distribution at steady state in Sprague-Dawley rat at 2 mg/kg, iv measured up to 24 hrs; assay type: ADME, organism-based; details: in vivo, read-out: Vdss
[13] = test system: Mus musculus; experiment: Anti-vascular cognitive impairment activity against bilateral common carotid artery occlusion-induced vascular dementia C57BL/6J mouse model assessed as improvement in short-term non-spatial working memory by measuring increase in novel object recognition at 25 mg/kg, ip administered post surgery measured after 1 to 3 months by novel object recognition test; assay type: functional, organism-based
[14] = Half life in Sprague-Dawley rat at 2 mg/kg, iv measured up to 24 hrs; assay type: ADME, organism-based; details: in vivo
[15] = AUC (0 to infinity) in Sprague-Dawley rat at 2 mg/kg, iv measured up to 24 hrs; assay type: ADME, organism-based; design: dose 2 mg/kg, time infinity, route intravenous; details: in vivo
[16] = Microsomal stability in human liver microsomes assessed as parent compound remaining measured after 30 mins; assay type: ADME, Microsome; details: read-out: Stability
[17] = test system: Mus musculus; experiment: Anti-vascular cognitive impairment activity against bilateral common carotid artery occlusion-induced vascular dementia C57BL/6J mouse model assessed as reduction in cerebral blood flow at 25 mg/kg, ip administered post surgery measured after 3 months relative to sham-operated control; assay type: functional; design: scale not given: the % may be the effect or the level left
[18] = test system: Mus musculus; experiment: Upregulation of acetylated H4K5 protein expression in right side cortex of bilateral common carotid artery occlusion-induced vascular dementia C57BL/6J mouse model at 25 mg/kg, ip measured after 3 months by Western blot analysis; assay type: functional, organism-based
[19] = Oral bioavailability in Sprague-Dawley rat at 10 mg/kg measured up to 24 hrs; assay type: ADME, organism-based; details: in vivo
[20] = biological target: Histone deacetylase 9 (Homo sapiens, UniProt Q9UKV0); experiment: Inhibition of human HDAC9 using fluorogenic Boc-Lys(trifluoroacetyl)-AMC as substrate by fluorescence based analysis
Sequence of Histone deacetylase 9 (Q9UKV0 whole entry): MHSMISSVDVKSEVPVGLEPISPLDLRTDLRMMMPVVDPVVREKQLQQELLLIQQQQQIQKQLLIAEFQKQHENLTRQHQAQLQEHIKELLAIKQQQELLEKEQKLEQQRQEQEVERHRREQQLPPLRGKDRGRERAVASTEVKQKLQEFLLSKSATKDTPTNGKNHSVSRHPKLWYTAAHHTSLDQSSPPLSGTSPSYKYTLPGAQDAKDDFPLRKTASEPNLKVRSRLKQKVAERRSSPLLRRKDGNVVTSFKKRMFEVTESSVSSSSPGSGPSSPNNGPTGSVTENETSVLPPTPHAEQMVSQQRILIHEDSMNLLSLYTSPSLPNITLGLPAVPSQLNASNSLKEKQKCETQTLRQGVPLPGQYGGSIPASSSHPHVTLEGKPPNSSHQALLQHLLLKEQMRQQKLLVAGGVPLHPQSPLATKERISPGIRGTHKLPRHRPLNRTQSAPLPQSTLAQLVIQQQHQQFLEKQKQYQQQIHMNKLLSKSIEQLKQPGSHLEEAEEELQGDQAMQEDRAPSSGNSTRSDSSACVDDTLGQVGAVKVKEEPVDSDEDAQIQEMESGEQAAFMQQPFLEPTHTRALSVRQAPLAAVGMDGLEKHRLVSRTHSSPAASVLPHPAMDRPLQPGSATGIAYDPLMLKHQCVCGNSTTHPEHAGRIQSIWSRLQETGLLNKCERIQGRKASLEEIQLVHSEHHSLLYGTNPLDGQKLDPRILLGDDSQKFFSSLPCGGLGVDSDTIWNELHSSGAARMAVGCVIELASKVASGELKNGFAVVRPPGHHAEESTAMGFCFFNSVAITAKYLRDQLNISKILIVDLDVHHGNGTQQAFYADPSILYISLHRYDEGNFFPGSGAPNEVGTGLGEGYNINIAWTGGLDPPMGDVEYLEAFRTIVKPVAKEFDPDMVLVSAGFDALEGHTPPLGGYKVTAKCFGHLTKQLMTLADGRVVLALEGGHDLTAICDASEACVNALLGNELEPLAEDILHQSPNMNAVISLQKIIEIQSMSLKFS

[21] = Aqueous solubility of compound in ethanol incubated at 37 degree C by LC-MS analysis; assay type: physicochemical
[22] = Aqueous solubility of compound in water incubated at 37 degree C by LC-MS analysis; assay type: physicochemical

With `O=C(/C=C/c1ccc(CNCCCN2c3ccccc3CCc3ccc(Cl)cc32)cc1)NO` the IC50 [1] was “Not Active”, the Ratio [2] was 0.923 and the Activity [3] was “Active”. The Activity [4] was 17.73%, the Activity [5] was “Active” and the Ratio [6] was 0.896. The IC50 [7] was 6.27 µM, the IC50 [8] was 1.27 µM and the Activity [9] was “Active”. For the same compound, the Activity [10] was “Active”, the IC50 [11] was 3.82 µM and the Vd [12] was 13.8 L/kg. The Activity [13] was “Active”, the half-life [14] was 17.2 h and the AUC(0-inf) [15] was 1850 ng·h/mL. For the same compound, the remaining at 0.5 h [16] was 81.5%, the Activity [17] was 89 - 92% and the Activity [18] was “Active”. For the same compound, the bioavailability [19] was 1.8%, the IC50 [20] was “Not Active” and the solubility [21] was 6.58 µg/mL (≈ 14.2 µM). The solubility [22] was < 1 µg/mL.
